{"source": "patent US10294202B2", "about": "“Pyrrolidinones as herbicides” (FMC Corporation, priority 2013, dated 2019)", "key": {"[1]": {"tested_on": "crabgrass, large", "assay": "Test C pre-/postemergence herbicide test", "assay_type": "in vivo, Digitaria sanguinalis", "settings": "Preemergence; for Plant response rating, Crabgrass, Large: 125 g ai/ha; for Plant response rating (scale of 0 to 100), Crabgrass, Large: 250 g ai/ha", "outline": "(§1)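 Visual rating, 0 (no effect) to 100 (complete control), versus untreated controls after 13 to 15 days in the greenhouse. Pre: seeds in loam/sand, sprayed at planting. Post: 1- to 4-leaf plants (2 to 18 cm) in peat-based mix. Compounds in non-phytotoxic solvent plus surfactant.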"}, "[2]": {"tested_on": "corn", "assay": "Test A pre-/postemergence herbicide test", "assay_type": "in vivo, Zea mays", "outline": "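Seeds sown in loam soil/sand blend received a preemergence directed soil spray of test chemical in non-phytotoxic solvent with surfactant; postemergence plants (2–10 cm, one- to two-leaf stage) were sprayed with the same formulation. After about 10 days in greenhouse, injury was rated visually versus untreated controls, 0 (no effect) to 100 (complete control).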"}, "[3]": {"tested_on": "waterhemp", "assay": "Test C pre-/postemergence herbicide test", "assay_type": "in vivo, Amaranthus rudis", "settings": "Preemergence; for Plant response rating, Waterhemp: 125 g ai/ha; for Plant response rating (scale of 0 to 100), Waterhemp: 250 g ai/ha", "outline": "as §1"}, "[4]": {"tested_on": "soybean", "assay": "Test C pre-/postemergence herbicide test", "assay_type": "in vivo, Glycine max", "settings": "Preemergence; for Plant response rating, Soybean: 125 g ai/ha; for Plant response rating (scale of 0 to 100), Soybean: 250 g ai/ha", "outline": "as §1"}, "[5]": {"tested_on": "ryegrass, Italian", "assay": "Test C pre-/postemergence herbicide test", "assay_type": "in vivo, Lolium multiflorum", "settings": "Preemergence; for Plant response rating, Ryegrass, Italian: 125 g ai/ha; for Plant response rating (scale of 0 to 100), Ryegrass, Italian: 250 g ai/ha", "outline": "as §1"}, "[6]": {"tested_on": "barnyardgrass", "assay": "Test B flooded paddy test", "assay_type": "in vivo, Echinochloa crus-galli", "settings": "1000 g ai/ha, Flood; scale of 0 to 100 where 0 is no effect and 100 is complete control", "outline": "(§2)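 Plants grown to 2-leaf stage; pots flooded 3 cm above soil and compound applied directly into paddy water, depth held throughout. Visual rating against untreated controls after 13 to 15 days in greenhouse, 0 (no effect) to 100 (complete control).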"}, "[7]": {"tested_on": "rice", "assay": "Test B flooded paddy test", "assay_type": "in vivo, Oryza sativa", "settings": "1000 g ai/ha, Flood; scale of 0 to 100 where 0 is no effect and 100 is complete control", "outline": "as §2"}, "[8]": {"tested_on": "oilseed rape", "assay": "Test C pre-/postemergence herbicide test", "assay_type": "in vivo, Brassica napus", "settings": "Preemergence; for Plant response rating, Oilseed Rape: 125 g ai/ha; for Plant response rating (scale of 0 to 100), Oilseed Rape: 250 g ai/ha", "outline": "as §1"}, "[9]": {"tested_on": "ducksalad", "assay": "Test B flooded paddy test", "assay_type": "in vivo, Heteranthera limosa", "settings": "1000 g ai/ha, Flood; scale of 0 to 100 where 0 is no effect and 100 is complete control", "outline": "as §2"}, "[10]": {"tested_on": "blackgrass", "assay": "Test C pre-/postemergence herbicide test", "assay_type": "in vivo, Alopecurus myosuroides", "settings": "Preemergence; for Plant response rating (scale of 0 to 100), Blackgrass: 250 g ai/ha", "outline": "as §1"}, "[11]": {"tested_on": "sedge, umbrella", "assay": "Test B flooded paddy test", "assay_type": "in vivo, Cyperus difformis", "settings": "1000 g ai/ha, Flood; scale of 0 to 100 where 0 is no effect and 100 is complete control", "outline": "as §2"}, "[12]": {"tested_on": "velvetleaf", "assay": "Test C pre-/postemergence herbicide test", "assay_type": "in vivo, Abutilon theophrasti", "settings": "Preemergence; for Plant response rating, Velvetleaf: 125 g ai/ha; for Plant response rating (scale of 0 to 100), Velvetleaf: 250 g ai/ha", "outline": "as §1"}, "[13]": {"settings": "31 g ai/ha, scale 0 to 100, 0 is no effect and 100 is complete control"}, "[14]": {"settings": "62 g ai/ha, scale 0 to 100 (0 no effect, 100 complete control)"}, "[15]": {"settings": "scale 0 to 100 (0 no effect, 100 complete control)"}, "[16]": {"settings": "Postemergence, 125 g ai/ha, 0 to 100 scale, 0 is no effect, 100 is complete control"}, "[17]": {"settings": "Postemergence, 500 g ai/ha, 0 to 100 scale (0 no effect, 100 complete control)"}, "[18]": {"settings": "Preemergence, 125 g ai/ha, 0 to 100 scale where 0 is no effect and 100 is complete control"}, "[19]": {"settings": "preemergence, 500 g ai/ha, 0 to 100 scale, 0 is no effect and 100 is complete control"}, "[20]": {"settings": "125 g ai/ha, scale 0 to 100 (0 no effect, 100 complete control)"}}, "data": [{"molecule": "O=C1NCC(c2ccc(C(F)(F)F)nc2)C1C(=O)Nc1ccccc1F", "note": "(racemic) [Compound 262]", "values": [{"measurement": "Crabgrass, Large plant response rating", "setting": "[1]; [13]", "result": 95}, {"measurement": "Crabgrass, Large plant response rating", "setting": "[1]; [14]", "result": 98}, {"measurement": "Plant response rating, Crabgrass, Large", "setting": "[1]; [15]", "result": 100}, {"measurement": "Plant response rating (scale of 0 to 100), Crabgrass, Large", "setting": "[1]", "result": 100}, {"measurement": "Plant response rating, Corn", "setting": "[2]; [16]", "result": 0}, {"measurement": "Plant response rating, Corn", "setting": "[2]; [17]", "result": 0}, {"measurement": "Plant response rating, Corn", "setting": "[2]; [18]", "result": 0}, {"measurement": "Plant response rating, Corn", "setting": "[2]; [19]", "result": 0}, {"measurement": "Waterhemp plant response rating", "setting": "[3]; [13]", "result": 0}, {"measurement": "Waterhemp plant response rating", "setting": "[3]; [14]", "result": 50}, {"measurement": "Plant response rating, Waterhemp", "setting": "[3]; [15]", "result": 60}, {"measurement": "Plant response rating (scale of 0 to 100), Waterhemp", "setting": "[3]", "result": 50}, {"measurement": "Soybean plant response rating", "setting": "[4]; [13]", "result": 0}, {"measurement": "Soybean plant response rating", "setting": "[4]; [14]", "result": 0}, {"measurement": "Plant response rating, Soybean", "setting": "[4]; [15]", "result": 0}, {"measurement": "Plant response rating (scale of 0 to 100), Soybean", "setting": "[4]", "result": 0}, {"measurement": "Ryegrass, Italian plant response rating", "setting": "[5]; [13]", "result": 0}, {"measurement": "Ryegrass, Italian plant response rating", "setting": "[5]; [14]", "result": 0}, {"measurement": "Plant response rating, Ryegrass, Italian", "setting": "[5]; [15]", "result": 0}, {"measurement": "Plant response rating (scale of 0 to 100), Ryegrass, Italian", "setting": "[5]", "result": 0}, {"measurement": "Plant response rating, Barnyardgrass", "setting": "[6]", "result": 20}, {"measurement": "Plant response rating, Rice", "setting": "[7]", "result": 0}, {"measurement": "Oilseed Rape plant response rating", "setting": "[8]; [13]", "result": 0}, {"measurement": "Oilseed Rape plant response rating", "setting": "[8]; [14]", "result": 35}, {"measurement": "Plant response rating, Oilseed Rape", "setting": "[8]; [15]", "result": 35}, {"measurement": "Plant response rating (scale of 0 to 100), Oilseed Rape", "setting": "[8]", "result": 70}, {"measurement": "Plant response rating, Ducksalad", "setting": "[9]", "result": 100}, {"measurement": "Blackgrass plant response rating", "setting": "[10]; [13]", "result": 0}, {"measurement": "Blackgrass plant response rating", "setting": "[10]; [14]", "result": 0}, {"measurement": "Plant response rating, Blackgrass", "setting": "[10]; [20]", "result": 0}, {"measurement": "Plant response rating (scale of 0 to 100), Blackgrass", "setting": "[10]", "result": 0}, {"measurement": "Plant response rating, Sedge, Umbrella", "setting": "[11]", "result": 0}, {"measurement": "Velvetleaf plant response rating", "setting": "[12]; [13]", "result": 0}, {"measurement": "Velvetleaf plant response rating", "setting": "[12]; [14]", "result": 0}, {"measurement": "Plant response rating, Velvetleaf", "setting": "[12]; [15]", "result": 0}, {"measurement": "Plant response rating (scale of 0 to 100), Velvetleaf", "setting": "[12]", "result": 0}]}, {"molecule": "O=C1NCC(c2ccc(C(F)(F)F)c(F)c2)C1C(=O)Nc1ccccc1F", "note": "(racemic) [Compound 246]", "values": [{"measurement": "Crabgrass, Large plant response rating", "setting": "[1]; [13]", "result": 95}, {"measurement": "Crabgrass, Large plant response rating", "setting": "[1]; [14]", "result": 95}, {"measurement": "Plant response rating, Crabgrass, Large", "setting": "[1]; [15]", "result": 95}, {"measurement": "Plant response rating (scale of 0 to 100), Crabgrass, Large", "setting": "[1]", "result": 98}, {"measurement": "Plant response rating, Corn", "setting": "[2]; [16]", "result": 20}, {"measurement": "Plant response rating, Corn", "setting": "[2]; [17]", "result": 30}, {"measurement": "Plant response rating, Corn", "setting": "[2]; [18]", "result": 0}, {"measurement": "Plant response rating, Corn", "setting": "[2]; [19]", "result": 0}, {"measurement": "Waterhemp plant response rating", "setting": "[3]; [13]", "result": 100}, {"measurement": "Waterhemp plant response rating", "setting": "[3]; [14]", "result": 98}, {"measurement": "Plant response rating, Waterhemp", "setting": "[3]; [15]", "result": 90}, {"measurement": "Plant response rating (scale of 0 to 100), Waterhemp", "setting": "[3]", "result": 90}, {"measurement": "Soybean plant response rating", "setting": "[4]; [13]", "result": 0}, {"measurement": "Soybean plant response rating", "setting": "[4]; [14]", "result": 0}, {"measurement": "Plant response rating, Soybean", "setting": "[4]; [15]", "result": 0}, {"measurement": "Plant response rating (scale of 0 to 100), Soybean", "setting": "[4]", "result": 10}, {"measurement": "Ryegrass, Italian plant response rating", "setting": "[5]; [13]", "result": 0}, {"measurement": "Ryegrass, Italian plant response rating", "setting": "[5]; [14]", "result": 0}, {"measurement": "Plant response rating, Ryegrass, Italian", "setting": "[5]; [15]", "result": 10}, {"measurement": "Plant response rating (scale of 0 to 100), Ryegrass, Italian", "setting": "[5]", "result": 10}, {"measurement": "Plant response rating, Barnyardgrass", "setting": "[6]", "result": 60}, {"measurement": "Plant response rating, Rice", "setting": "[7]", "result": 20}, {"measurement": "Oilseed Rape plant response rating", "setting": "[8]; [13]", "result": 0}, {"measurement": "Oilseed Rape plant response rating", "setting": "[8]; [14]", "result": 30}, {"measurement": "Plant response rating, Oilseed Rape", "setting": "[8]; [15]", "result": 0}, {"measurement": "Plant response rating (scale of 0 to 100), Oilseed Rape", "setting": "[8]", "result": 30}, {"measurement": "Plant response rating, Ducksalad", "setting": "[9]", "result": 95}, {"measurement": "Blackgrass plant response rating", "setting": "[10]; [13]", "result": 0}, {"measurement": "Plant response rating, Blackgrass", "setting": "[10]; 62 g ai/ha, scale 0 to 100", "result": 0}, {"measurement": "Plant response rating, Blackgrass", "setting": "[10]; [20]", "result": 5}, {"measurement": "Plant response rating (scale of 0 to 100), Blackgrass", "setting": "[10]", "result": 70}, {"measurement": "Plant response rating, Sedge, Umbrella", "setting": "[11]", "result": 20}, {"measurement": "Velvetleaf plant response rating", "setting": "[12]; [13]", "result": 0}, {"measurement": "Velvetleaf plant response rating", "setting": "[12]; [14]", "result": 0}, {"measurement": "Plant response rating, Velvetleaf", "setting": "[12]; [15]", "result": 0}, {"measurement": "Plant response rating (scale of 0 to 100), Velvetleaf", "setting": "[12]", "result": 0}]}]}
